This is an account of results in ChEMBL document CHEMBL6127095, “Isoxazole compounds: Unveiling the synthetic strategy, in-silico SAR & toxicity studies and future perspective as PARP inhibitor in cancer therapy” (Eur J Med Chem, 2024).

The structures appear in SMILES notation. Converted amounts (≈) assume the structure as drawn. Where a name gives a salt, the structure may show the parent alone.

The test system of series [1] is MCF7. The series can be described thus: Growth inhibition of human MCF7 cells incubated fro 48 hrs by SRB assay. It is filed as functional.
Series [2] has as its system PC-3. The series can be described thus: Growth inhibition of human PC-3 cells measured for 48 hrs by SRB assay. It counts as functional. For orientation: In SRB staining, fixed cells bind dye roughly in proportion to their protein.
Series [3] relates to PC-3. The series can be described thus: Antiproliferative activity against human PC-3 cells assessed as reduction in cell viability incubated for 24 hrs by MTT assay. It counts as functional, cell-based. The conditions noted are these: PC-3, 24 h. On the technique in general: Formazan colour is commonly taken as a measure of viable cells.
In the next series the test system is HepG2. Description: Antiproliferative activity against human HepG2 cells assessed as reduction in cell viability after 24 hrs by MTT assay. It is filed as functional, cell-based. The following applies: HepG2, 24 h.
The nature of series [4]: Toxicity in mouse assessed as lethal dose. The conditions noted are these: in vivo.
The next series has as its system DU-145. The series can be described thus: Antiproliferative activity against human DU-145 cells assessed as reduction in cell viability by MTT assay. It counts as functional, cell-based.
In series [5] the test system is MCF7. The series can be described thus: Anticancer activity against human MCF7 cells assessed as inhibition of cell growth incubated for 24 hrs by MTT assay. It is filed as functional, cell-based. The conditions noted are these: MCF7, 24 h.
For the next series, the system named is 4T1. Description: Cytotoxicity against mouse 4T1 cells assessed as inhibition of cell proliferation incubated for 72 hrs by MTT assay. It is filed as functional, cell-based. The following applies: 4T1, 72 h.
Series [6] relates to PC-3. Description: Anticancer activity against human PC-3 cells assessed as inhibition of cell growth incubated for 24 hrs by MTT assay. It counts as functional, cell-based. The following applies: PC-3, 24 h.
Series [7] concerns the target Poly [ADP-ribose] polymerase 1 (Homo sapiens, UniProt P09874). The series can be described thus: Inhibition of PARP-1 (unknown origin).
The test system of another series is Huh-7. Description: Antiproliferative activity against human Huh-7 cells assessed as reduction in cell growth. It is filed as functional, cell-based.
In the next series the test system is K562. Description: Antiproliferative activity against human K562 cells assessed as reduction in cell viability after 72 hrs by MTT assay. The following applies: K562, 72 h. It counts as functional, cell-based.
For series [8], the target named is Epidermal growth factor receptor (Homo sapiens, UniProt P00533). The series can be described thus: Inhibition of EGFR (unknown origin) using TK as substrate incubated for 30 mins by HTRF assay. Background: Time-resolved FRET reads energy transfer from a long-lived donor to a nearby acceptor.
Series [9] concerns MCF7. Description: Antiproliferative activity against human MCF7 cells assessed as reduction in cell viability incubated for 48 hrs by MTT assay. It counts as functional, cell-based. The following applies: MCF7, 48 h.
Series [10] deals with MDA-MB-231. The series can be described thus: Anticancer activity against human MDA-MB-231 cells assessed as reduction in cell viability measured for 48 hrs by MTT assay. It is filed as functional, cell-based. The conditions noted are these: MDA-MB-231, 48 h.
The test system of series [11] is MDA-MB-231. The series can be described thus: Growth inhibition of human MDA-MB-231 cells. It counts as functional.
The target in a further series is Heat shock protein HSP90 (Homo sapiens, UniProt P07900+P08238). The series can be described thus: Inhibition of HSP90 (unknown origin) ATPase activity. It is filed as protein assay.
Series [12] relates to MCF7. Description: Antitumor activity against human MCF7 cells xenografted in BALB/c nude mouse assessed as tumor growth inhibition at 30 mg/kg, iv administered for 15 days. It is filed as functional. The arrangement: scale not given: the % may be the effect or the level left. The following applies: time 15 day.

Sequence of Poly [ADP-ribose] polymerase 1 (P09874 whole entry): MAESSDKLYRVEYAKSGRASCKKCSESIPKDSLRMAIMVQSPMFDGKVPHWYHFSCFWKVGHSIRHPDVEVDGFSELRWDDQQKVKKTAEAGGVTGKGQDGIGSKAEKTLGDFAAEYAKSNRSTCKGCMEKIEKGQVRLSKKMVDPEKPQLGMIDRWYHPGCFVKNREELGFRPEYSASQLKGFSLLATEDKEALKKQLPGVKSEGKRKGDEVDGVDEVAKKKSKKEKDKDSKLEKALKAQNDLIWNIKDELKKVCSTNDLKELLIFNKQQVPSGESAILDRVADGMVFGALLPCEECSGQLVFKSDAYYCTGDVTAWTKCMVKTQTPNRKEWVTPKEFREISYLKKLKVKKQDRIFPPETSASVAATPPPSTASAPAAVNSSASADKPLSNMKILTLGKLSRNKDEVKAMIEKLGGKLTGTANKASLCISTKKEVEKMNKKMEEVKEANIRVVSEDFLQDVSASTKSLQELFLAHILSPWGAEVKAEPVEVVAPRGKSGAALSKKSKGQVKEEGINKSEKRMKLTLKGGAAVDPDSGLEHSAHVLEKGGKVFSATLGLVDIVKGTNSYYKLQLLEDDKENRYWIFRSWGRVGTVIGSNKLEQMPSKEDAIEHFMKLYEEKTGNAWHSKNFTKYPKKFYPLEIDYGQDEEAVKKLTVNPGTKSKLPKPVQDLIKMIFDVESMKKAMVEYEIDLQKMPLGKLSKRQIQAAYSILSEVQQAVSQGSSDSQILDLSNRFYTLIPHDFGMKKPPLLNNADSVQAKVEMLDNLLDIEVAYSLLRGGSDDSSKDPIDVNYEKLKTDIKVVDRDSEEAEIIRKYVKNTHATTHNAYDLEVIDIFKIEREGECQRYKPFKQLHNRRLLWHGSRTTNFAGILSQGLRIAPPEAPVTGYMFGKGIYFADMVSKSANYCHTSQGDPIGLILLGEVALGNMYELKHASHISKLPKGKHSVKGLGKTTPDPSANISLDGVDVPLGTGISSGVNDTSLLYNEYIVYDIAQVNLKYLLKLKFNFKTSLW
Sequence of Epidermal growth factor receptor (P00533 whole entry): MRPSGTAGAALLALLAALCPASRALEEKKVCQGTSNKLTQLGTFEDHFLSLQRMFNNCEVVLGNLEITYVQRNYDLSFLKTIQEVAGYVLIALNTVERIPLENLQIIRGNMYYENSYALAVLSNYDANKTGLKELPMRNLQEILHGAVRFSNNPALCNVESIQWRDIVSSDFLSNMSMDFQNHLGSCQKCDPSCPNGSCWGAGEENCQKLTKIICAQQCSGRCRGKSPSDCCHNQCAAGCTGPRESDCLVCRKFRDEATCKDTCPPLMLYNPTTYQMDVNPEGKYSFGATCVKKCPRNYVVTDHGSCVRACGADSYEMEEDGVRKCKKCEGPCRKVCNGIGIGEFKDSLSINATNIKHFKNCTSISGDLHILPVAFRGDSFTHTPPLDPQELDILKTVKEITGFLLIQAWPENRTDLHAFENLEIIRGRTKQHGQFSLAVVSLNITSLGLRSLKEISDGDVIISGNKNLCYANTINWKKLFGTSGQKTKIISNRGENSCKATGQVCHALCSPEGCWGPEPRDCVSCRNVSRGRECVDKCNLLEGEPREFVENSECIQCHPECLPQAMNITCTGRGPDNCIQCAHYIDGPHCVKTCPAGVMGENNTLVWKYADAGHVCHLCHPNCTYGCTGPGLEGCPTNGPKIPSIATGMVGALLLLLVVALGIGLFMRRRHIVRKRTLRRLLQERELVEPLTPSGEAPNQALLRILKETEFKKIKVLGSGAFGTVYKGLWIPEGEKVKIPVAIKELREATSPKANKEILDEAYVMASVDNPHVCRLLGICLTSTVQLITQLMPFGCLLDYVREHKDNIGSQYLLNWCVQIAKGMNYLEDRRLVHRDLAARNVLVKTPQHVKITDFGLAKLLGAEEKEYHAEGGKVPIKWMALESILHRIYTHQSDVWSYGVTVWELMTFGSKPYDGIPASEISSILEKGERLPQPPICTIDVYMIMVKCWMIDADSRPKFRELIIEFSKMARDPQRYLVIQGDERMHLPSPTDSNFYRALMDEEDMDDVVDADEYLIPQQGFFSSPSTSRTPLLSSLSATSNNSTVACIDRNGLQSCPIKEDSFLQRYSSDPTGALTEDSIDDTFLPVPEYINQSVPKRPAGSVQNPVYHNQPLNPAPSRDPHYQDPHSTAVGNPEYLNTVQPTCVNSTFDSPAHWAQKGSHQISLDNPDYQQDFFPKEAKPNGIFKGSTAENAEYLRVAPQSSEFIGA

In general, GI50 refers to the concentration at which growth is held to half of that of the control. `COc1cccc2c1C(=O)c1c(O)c3c(c(O)c1C2=O)C[C@@](O)(C(=O)CO)C[C@@H]3O[C@H]1C[C@H](N)[C@H](O)[C@H](C)O1` [DOXORUBICIN HYDROCHLORIDE]: the GI50 in the series with MCF7 [1] and with PC-3 [2] was 1 µM each time. A word on the IC50: it is the midpoint of a concentration-inhibition curve. Turning to `c1csc(-c2cc(-c3cncc(-c4nnc(-c5nccs5)o4)c3)no2)n1`, the IC50 in the series on PC-3 [3] was 0.01 µM. As for `Cc1ccccc1COc1ccc(-c2noc(C)c2-c2ccc(Cl)cc2)cc1`, the IC50 in the series with HepG2 was 0.77 µM.

For orientation: LD50 means the dose at which mortality reaches 50%. Consider `Cc1noc(C)c1-c1cc(Cc2n[nH]c(=O)c3ccccc23)cc(NC(=O)c2ccccc2C(F)(F)F)c1`, for which the LD50 in [4] was found to be 500 mg/kg. `COc1ccc(/C=C/C(=O)c2ccno2)c(F)c1OC`: the IC50 in the series on DU-145 turned out to be 5 µg/mL (≈ 18 µM). As to `COc1ccc(-c2noc(-c3cccs3)c2C(F)(F)F)cc1OC`, the IC50 with MCF7 [5], in the series on 4T1 and with PC-3 [6] was 2.63 µM throughout.

`COc1ccc(-c2nnc(-c3cncc(-c4cc(-c5nccs5)on4)c3)o2)cc1`: the IC50 in the series with PC-3 [3] came out at 0.01 µM. Compound `CCCCCCCCCCc1cc(CCC(N)(CO)CO)on1` came in with an IC50 in series [7] of 7.5 µM. Take `COc1cc(NC(=O)c2cc(-c3c[nH]c4ccccc34)no2)cc(OC)c1OC`: the IC50 with Huh-7 was 0.7 µM. In the case of `Cc1onc([C@@H]2CN(C)C3(C(=O)c4ccccc4C3=O)[C@@]23C(=O)N(C)c2cc(Br)ccc23)c1[N+](=O)[O-]`, the IC50 with K562 worked out at 20.3 µM. As for `COc1c(Cl)cc(-c2noc(-c3cn(Cc4cc(-c5cc(Cl)cc(Cl)c5)no4)c4ccccc34)n2)cc1Cl`, the IC50 was determined as 0.2 µM in series [8] and 2.16 µM with MCF7 [9].

`c1cnoc1` [ISOXAZOLE]: the IC50 in series [7] was 10 µM. As to `COc1cc(-c2nnc(-c3cncc(-c4cc(-c5nccs5)on4)c3)o2)cc(OC)c1OC`, the IC50 in the series with PC-3 [3] is 0.01 µM.

As for `Cc1cc(C[C@@H]2C[C@H]3C(=O)N(C)C4(C[C@H](C)CC[C@H]4C(C)C)N3O2)c(O)c(-n2nc3ccccc3n2)c1` (stereo partly drawn), in series [4], the LD50 was 1000 mg/kg. On to `CCc1cc(-c2oncc2-c2ccc(OC)cc2)c(O)cc1OC`, for which, in the series with MDA-MB-231 [10], the half-inhibitory concentration (IC50) was 0.1 µM. This compound also gave a GI50 in the series on MDA-MB-231 [11] of 25 µM. For `COc1ccc(-c2noc(NC(=O)c3ccc(F)c(F)c3)c2C#N)c(OC)c1`, the IC50 on Heat shock protein HSP90 amounted to 14 µM. Take `CC(=O)c1c(O)c(C)c(O)c2c1OC1=Cc3onc(C)c3C(=O)[C@@]12C`: the Activity with MCF7 [12] is 80%. With `c1cc(-c2nnc(-c3cncc(-c4cc(-c5nccs5)on4)c3)o2)ccn1`, the IC50 in the series on PC-3 [3] was 0.01 µM.
